In brackets after ≈: the same amount, converted by molar mass.
B1: random coil control peptide (RC) (peptide)
peptide: Ac-ELEKGGLEGEKGGKELEK-NH2

How the values were obtained:
[1] = test system: Acinetobacter baumannii isolates resistant to classical antibiotics; type: cell-based; conditions: isolates resistant to classical antibiotics
Source text: Thus, shortening the number of carbon atoms between the side-chain amino group and the α-carbon atom from four (Lys) to one (diaminopropionic acid) had very little effect on antibacterial activity (Table 2). We also determined the antibacterial activity of our five AMPs against 20 additional Acinetobacter baumannii isolates from four continents, 12 different countries and 17 different cities that were resistant to 18 different antibiotics. […] Thus, it is very clear that changing the type of positively-charged residue on the polar face of these AMPs had very little effect on the antibacterial activities.

[2] = test system: Acinetobacter baumannii strains resistant to Polymyxin B and Colistin; conditions: strains resistant to Polymyxin B and Colistin, 24 h
Source text: (§1) The coupling procedure used 5 equivalents of Fmoc-D-amino acid or Fmoc-L-amino acid and HCTU (O-(1H-6-chlorobenzotriazole-1-yl)-1,1,3,3-tetramethyluronium hexafluorophosphate) and 6-Cl-HOBt (1-hydroxy-6-chloro-benztriazole) at 4.5 equivalents in DMF (Fisher Scientific, Denver, Colo.) and N-diisopropylethylamine (DIPEA) 10 equivalents (Oakwood Products, Inc., Estill, S.C.) in N-methyl-2-pyrrolidinone (NMP) (Fisher Scientific, Denver, Colo.) with the first and second couplings at room temperature for 30 min each. The deprotection procedure (removal of Fmoc protecting group) was carried out by treatment of the resin with 0.1 M HOBt (1-hydroxybenzotriazole) in DMF with 20% piperidine for 30 min. […] The resin was removed by filtration and peptide was precipitated with ice-cooled ethyl ether on ice for 15 min. Ether was decanted, the peptide was washed twice with ether and redissolved in acetonitrile/water (1:1, with 0.2% TFA) and the solution lyophilized to obtain the crude peptide. • Analytical and Preparative Purification by Reversed-Phase Chromatography: Analytical RP-HPLC: Column, Luna C18 (2), 250×4.6 mm I.D., 5 μm particle size, 100 Å pore size from Phenomenex (Torrance, Calif.). Run conditions: linear AB gradient (1% acetonitrile/min, starting from 2% acetonitrile) at a flow-rate of 1 ml/min, where eluent A is 0.2% aq. TFA and eluent B is 0.18% TFA in acetonitrile; temperature, 30° C. Preparative RP-HPLC: Peptides were dissolved in 0.2% aq. TFA containing 2% acetonitrile to a final concentration of 10 mg/ml. Following filtration through a 0.45 μm Millipore filter and subsequently through a 0.22 μm filter, the peptide solutions were loaded onto the column via multiple 20-ml injections into a 20-ml injection loop at a flow-rate of 10 ml/min. Column, Luna C18 (2), 250×30 mm I.D., 5 um particle size, 100 Å pore size from Phenomenex. Run conditions: 2% acetonitrile/min gradient up to an acetonitrile concentration 10% below that required to elute the peptide during analytical RP-HPLC, then shallow gradient elution (0.05% or 0.1% acetonitrile/min depending on the complexity of impurities near the product of interest on the analytical run of the crude peptide) at a flow-rate of 10 ml/min (same eluents as shown above for analytical RP-HPLC); at room temperature. • Temperature Profiling of Peptides on Reversed-phase HPLC to Measure Dimerization and Oligomerization: Purified peptides were analyzed on an Agilent 1200 series liquid chromatograph for temperature profiling using a Zorbax 300 SB-C8 column (150 mm×2.1 mm I.D.; 5 μm particle size, 300 Å pore size) from Agilent Technologies. […] Temperature profiling was carried out on peptide mixtures run at each temperature in 2° C. increments from 5° C. to 41° C. and 10° C. increments from 5° C. to 75° C. Twenty minutes was allowed between runs for temperature equilibration. • Characterization of Helical Structure: The mean residue molar ellipticities of peptides were determined by circular dichroism (CD) spectroscopy, using a Jasco J-815 spectropolarimeter (Jasco Inc. Easton, Md., USA) at 5° C. under KP buffer (50 mM NaH2PO4/Na2HPO4/100 mM KCl, pH 7.0) as well as in the presence of an α-helix inducing solvent, 2,2,2-trifluoroethanol, TFE, (50 mM NaH2PO4/Na2HPO4/100 mM KCl, pH 7.0 buffer/50% TFE). A 10-fold dilution of an approximately 500 μM stock solution of the peptide analogs was loaded into a 0.1 cm quartz cell and its ellipticity scanned from 195 to 250 nm.

[3] = test system: human red blood cells; assay: Hemolytic activity on human red blood cells
Description: For comparison, the inventors also determined the hemolytic activity after 18 hours at 37° C. Hemolysis can be determined with red blood cells (RBC) from various species including human red blood cells (hRBC).
as §1

[4] = biological target: the molecule itself; assay: RP-HPLC temperature profiling (self-association)

| Molecule | MIC 101887 [1] | MIC 961997 [1] | MIC 963618 [1] | MIC 964304 [1] | MIC 977751 [1] | MIC 981653 [1] | MIC 1002956 [1] | MIC 1007660 [1] | MIC 1010282 [1] | MIC 1035166 [1] | MIC MB9941 [2] | MIC MB9949 [2] | MIC MB9951 [2] | MIC MB9952 [2] | MIC MB9953 [2] | MIC MB9955 [2] | MIC MB9963 [2] | HC50 Fold Improvement [3] | HC50 ([3]; red cells of human, 18 h) | binding result [4] |
| --- | --- | --- | --- | --- | --- | --- | --- | --- | --- | --- | --- | --- | --- | --- | --- | --- | --- | --- | --- | --- |
| CC(=O)N[C@H](CCCCN)C(=O)N[C@H](CC(C)C)C(=O)N[C@@H](CCN)C(=O)N[C@H](CO)C(=O)N[C@H](CC(C)C)C(=O)N[C@H](CC(C)C)C(=O)N[C@@H](CCN)C(=O)N[C@@H](C(=O)N[C@H](CC(C)C)C(=O)N[C@H](CO)C(=O)N[C@@H](CCN)C(=O)N[C@H](C)C(=O)N[C@H](CCCCN)C(=O)N[C@H](C)C(=O)N[C@H](C)C(=O)N[C@H](CCCCN)C(=O)N[C@H](CC(C)C)C(=O)N[C@@H](CCN)C(=O)N[C@@H](C(=O)N[C@H](CC(C)C)C(=O)N[C@H](CC(C)C)C(=O)N[C@@H](CCN)C(=O)N[C@H](C)C(=O)N[C@H](CC(C)C)C(=O)N[C@H](CO)C(=O)N[C@H](CO)C(N)=O)[C@H](C)O)[C@H](C)O [D102(Lys^1Ser^26-5Dab-1), Ac-KL(L-Dab)SLL(L-Dab)TLS(L-Dab)AKAAKL(L-Dab)TLL(L-Dab)ALS(Ser)-amide] | 0.7 µM (≈ 1.88 µg/mL) | 1.5 µM (≈ 4.03 µg/mL) | 0.4 µM (≈ 1.07 µg/mL) | 0.7 µM (≈ 1.88 µg/mL) | 0.7 µM (≈ 1.88 µg/mL) | 0.4 µM (≈ 1.07 µg/mL) | 0.4 µM (≈ 1.07 µg/mL) | 0.4 µM (≈ 1.07 µg/mL) | 0.7 µM (≈ 1.88 µg/mL) | 0.7 µM (≈ 1.88 µg/mL) | 0.4 µM (≈ 1.07 µg/mL) | 0.7 µM (≈ 1.88 µg/mL) | 0.7 µM (≈ 1.88 µg/mL) | 0.7 µM (≈ 1.88 µg/mL) | 1.4 µM (≈ 3.76 µg/mL) | 0.7 µM (≈ 1.88 µg/mL) | 0.7 µM (≈ 1.88 µg/mL) | >177 | – | – |
| CC(=O)N[C@H](CCCCN)C(=O)N[C@H](CC(C)C)C(=O)N[C@@H](CN)C(=O)N[C@H](CO)C(=O)N[C@H](CC(C)C)C(=O)N[C@H](CC(C)C)C(=O)N[C@@H](CN)C(=O)N[C@@H](C(=O)N[C@H](CC(C)C)C(=O)N[C@H](CO)C(=O)N[C@@H](CN)C(=O)N[C@H](C)C(=O)N[C@H](CCCCN)C(=O)N[C@H](C)C(=O)N[C@H](C)C(=O)N[C@H](CCCCN)C(=O)N[C@H](CC(C)C)C(=O)N[C@@H](CN)C(=O)N[C@@H](C(=O)N[C@H](CC(C)C)C(=O)N[C@H](CC(C)C)C(=O)N[C@@H](CN)C(=O)N[C@H](C)C(=O)N[C@H](CC(C)C)C(=O)N[C@H](CO)C(=O)N[C@@H](CN)C(N)=O)[C@H](C)O)[C@H](C)O [D105(Lys^1-6Dap-1), Ac-KL(L-Dap)SLL(L-Dap)TLS(L-Dap)AKAAKL(L-Dap)TLL(L-Dap)ALS(L-Dap)-amide] | 0.8 µM (≈ 2.09 µg/mL) | 1.5 µM (≈ 3.92 µg/mL) | 0.8 µM (≈ 2.09 µg/mL) | 1.5 µM (≈ 3.92 µg/mL) | 0.8 µM (≈ 2.09 µg/mL) | 0.8 µM (≈ 2.09 µg/mL) | 0.8 µM (≈ 2.09 µg/mL) | 0.8 µM (≈ 2.09 µg/mL) | 0.8 µM (≈ 2.09 µg/mL) | 0.8 µM (≈ 2.09 µg/mL) | 0.8 µM (≈ 2.09 µg/mL) | 0.8 µM (≈ 2.09 µg/mL) | 3.0 µM (≈ 7.84 µg/mL) | 0.8 µM (≈ 2.09 µg/mL) | 3.0 µM (≈ 7.84 µg/mL) | – | 1.5 µM (≈ 3.92 µg/mL) | >287 | >1148 µM | – |
| B1 | – | – | – | – | – | – | – | – | – | – | – | – | – | – | – | – | – | – | – | no binding |

Source: patent US20220105150A1, “AMPHIPATHIC ALPHA-HELICAL ANTIMICROBIAL PEPTIDES TREAT INFECTIONS BY GRAM-NEGATIVE PATHOGENS” (priority 2019, published 2022)
